From a melting point compilation (Tetko et al.; mined from patent text by program, amines drawn as free bases though some values may be those of a salt)

Point of comparison: `CCN1C(=O)COc2ccc(-c3nn[nH]c3-c3cccc(C)n3)cc21`, melting point 187 °C. Against it:
- CC(C)(CNC(=O)COCC(=O)OCOC(=O)Cc1ccccc1Nc1c(Cl)cccc1Cl)SN=O — lower, 66 °C
- O=C(O)c1ccc(OC2=C3N=C4CCCCC4=C3C(Cc3ccc(Cl)cc3)C=C2)o1 (configuration not stated) — lower, 162 to 164 °C
- CCc1cc(CCN2C(=O)c3ccccc3C2=O)c(OC)nc1C — lower, 77 to 79 °C
- Cc1ccc(-c2nnc(N3CCC(=O)CC3)nc2-c2ccc(C)cc2)cc1 — higher, 197 to 199 °C
- COc1cc2ncnc(N3CCc4cc(C)ccc43)c2cc1OC — lower, 180 to 181 °C
- COc1ccc(NC(=O)c2ccc(-c3ccc(-c4noc(C)n4)cc3)cc2)cc1N1CCN(C)CC1 — lower, 135 to 137 °C
- O=C(OSc1ccccn1)c1ccc(Cc2ccc(F)cc2)o1 — lower, 88 to 89 °C
- Cc1cc(=O)c(OCc2ccccc2)c(C(=O)NC2CCCCC2)n1C — higher, 258 to 260 °C
- NC(=O)C1=CCCc2cc(Sc3cccc(F)c3)cc(F)c21 — higher, 213 to 214 °C
- CCOC(=O)COc1ccc(SCc2ccc3sc(-c4ccc(C(F)(F)F)cc4)nc3c2)cc1C — lower, 138 to 140 °C
- Oc1[nH]nc2c1-c1ccc(Cl)cc1CC2 — higher, 232 to 233 °C
- Cc1onc(-c2c(F)cccc2Cl)c1-c1csc(N)n1 — lower, 148 to 149 °C
- O=C(/C=C/c1c[nH]c2ccccc12)c1ccccc1 — lower, 167 to 170 °C
- CN1CCCN(C2=Nc3cc(Cl)ccc3Nc3ccccc32)CC1 — lower, 143 to 145 °C
- O=C(N(c1ccccc1)c1nc(C(Cl)(Cl)Cl)ns1)C(Cl)(Cl)Cl — lower, 158 °C
- CCN(CC)C(=S)n1cc(F)c(/N=C/N(C)C)nc1=O — lower, 118 to 123 °C
- CC(=O)CCc1ccc(-c2ccccc2F)cc1 — lower, 30 °C
- Nc1nc(N)nc(-c2nccc3ccccc23)n1 — higher, > 250 °C
- COC(=O)c1nn(C)nc1C(=O)OC — lower, 86 to 87 °C
- Cc1ccc(S(=O)(=O)ON=C(C#N)c2ccc(F)cc2)cc1 — lower, 129 to 140 °C
- COC(=O)c1c(Cc2ccc(C(=O)NC(C)(C)CC(=O)N(C)C)cc2)c(=O)c2ccc(Cl)cc2n1-c1ccccc1 — lower, 84.1 to 95.5 °C
- CCOC(=O)NCc1cccc(-c2ccnc3c(C#N)cnn23)c1 — lower, 140 to 142 °C
- COc1ccc([C@H]2SC(c3ccccc3)=C(C)N(CCN(C)C)C(=O)[C@H]2OC(C)=O)cc1 — lower, 90 to 92 °C
- CC(c1c[nH]cn1)c1cccc2c1OC(C)(C)OC2 (configuration not stated) — lower, 118 °C
- CC(C)(C)OC(=O)NC(C)(CO)C(=O)OC(C)(C)C (configuration not stated) — lower, 44 to 45 °C
- N#Cc1ccc(O)c(NC(=O)C(=O)O)c1 — higher, > 300 °C
- [N-]=[N+]=NC[C@H]1CN(c2ccc(N3C[C@@H]4C[C@H]3CO4)c(F)c2)C(=O)O1 — lower, 101 to 102 °C
- CCCCN(CCCC)c1ccc(C=CC=CC=CC2=C(C#N)C(=C(C#N)C#N)OC2(c2ccccc2)C(F)(F)F)c(OC)c1 (configuration not stated) — higher, 208 to 210 °C
- Nc1ncnc2c1ncn2[C@@H]1C=C[C@H](CO)C1 — lower, 121 to 124 °C
- Cn1nc(C#N)c(Nc2ccc(F)cc2[N+](=O)[O-])n1 — lower, 159 to 160 °C
- CNS(=O)(=O)c1c[nH]c(-c2ccc(Cl)cc2)n1 — higher, 246 to 248 °C
- CC(CNc1ccc(Cl)cc1[N+](=O)[O-])OS(C)(=O)=O (configuration not stated) — lower, 106 to 108 °C
- COc1ccc(C(=O)Nc2ccc(Cl)cc2)cc1N — higher, 191 to 192 °C
- CSc1nn2c(O)cc(CCl)nc2c1S(=O)(=O)c1ccccc1 — higher, 215 to 217 °C
- CCCn1c(=O)c2[nH]c(-c3nn(CC(=O)Nc4ccc(Cl)cc4)c(C)c3Br)nc2n(CCC)c1=O — higher, 298 to 299 °C
- Cc1ccc(-c2c(Cl)ncn2-c2ccc(S(C)(=O)=O)cc2)cc1 — lower, 182 °C
- COC(=O)c1ccc(OCCCN2C(=O)c3ccccc3C2=O)c(OC)c1 — lower, 127 to 128 °C
- Cc1ccc(N)cc1Nc1nccc(-c2ccc(Cl)nc2)n1 — lower, 117 to 118 °C
- CCc1cc2c(s1)-n1c(C)nnc1C(CC(=O)O)N=C2c1ccc(Cl)cc1 (configuration not stated) — higher, 198 to 202 °C
- CON1C(C)(C)CC(OC(=O)CCc2cc(-n3nc4ccccc4n3)c(O)c(C(C)(C)C)c2)CC1(C)C — lower, 135 to 137 °C
- O=C(O)c1cc(COC2CCCCO2)ccc1COC1CCCCO1 (configuration not stated) — lower, 107 to 108 °C
- CC1(S(=O)(=O)C2(C)C=CC=CC2O)C=CC=CC1O (configuration not stated) — lower, 95 to 97 °C
- O=C(Nc1cccc(C2CN3CCSC3=N2)c1)c1ccc(Br)nc1 (configuration not stated) — lower, 149 to 153 °C
- CCN(CC)CCc1nc(Cn2cnc3c2c(=O)n(C)c(=O)n3C)no1 — lower, 69 to 70 °C
- O=C(O)c1cc(-n2c(-c3ccccc3)cc3c2CCCC3)cc(Br)c1O — higher, 209 to 210 °C
- O=C(c1ccc(Cl)c([N+](=O)[O-])c1)c1cnc(NC2CCCCC2)s1 — higher, 194 to 198 °C
- Oc1cccc2c1ccn2CCOCCC(c1ccccc1)c1ccccc1 — lower, 107 to 109 °C
- N#CCc1nc(C(F)(F)F)ccc1C(=O)O — lower, 152 to 153 °C
- Nc1c(Cl)cc(S(=O)(=O)C(F)(F)F)cc1[N+](=O)[O-] — lower, 138 to 139 °C
- CCOC(=O)COc1cccc(NC(=O)NC2N=C(c3ccccc3F)c3ccccc3N(CC(=O)N3CC4CCC(CC4)C3)C2=O)c1 (racemic) — lower, 156 to 158 °C
- CCOC(=O)N(CCOc1ccc(Oc2ccc(F)cc2)cc1)C(=O)OCC — lower, 52 to 53 °C
- CC(C)(C)OC(=O)NC1CNC(=O)C12CC2 (configuration not stated) — lower, 178 to 181 °C
- COc1ccc(C#N)c(C(=O)Cl)c1 — higher, 192 to 194 °C
- NN1CCN(C2c3ccccc3C=C(Br)c3ccccc32)CC1 (configuration not stated) — higher, 188 to 190 °C
- CCOc1c(OC)c(OC)cc(C(=O)O)c1-c1c(C(=O)O)cc(OC)c2c1OCO2 — higher, 236 to 237 °C
- O=C(O)c1cccc(C(=O)C=Cc2ccc(Cl)c(Cl)c2)c1O — higher, > 250 °C
- CCOC(=O)COc1ccc(NC(C)=O)cc1NC(=O)c1ccc(OCCCCc2ccccc2)cc1 — lower, 130 to 132 °C
- CCCCCCCCCCCCn1nnnc1Nc1ccccc1 — lower, 108 to 111 °C
- NC1=NN(/C=N/O)C(=O)C1Cc1ccccc1 (configuration not stated) — lower, 105 to 108 °C
- CSC(=Cc1ccccc1N(Cc1ccccc1)c1c(Cl)cccc1Cl)S(C)=O (configuration not stated) — higher, 194 to 196 °C
- CN(C)CCCn1c(-c2ccc(Br)cc2)cc2c1CCCCC2 — lower, 69 to 70 °C
- COc1ccc(Cc2ccc(C(=O)O)nc2)cc1 — lower, 145 to 147 °C
- C[C@]1(CN2CCC(Cc3ccc(OC(F)(F)F)cc3)CC2)Cn2cc([N+](=O)[O-])nc2O1 — lower, 111 to 112 °C
- O=C1OCCC1C1CCc2c1[nH]c1ccccc21 (configuration not stated) — lower, 155 to 157 °C
- CCN(CC)CCOc1ccc2cc3ccc(OCCN(CC)CC)c([N+](=O)[O-])c3nc2c1[N+](=O)[O-] — lower, 138 to 140 °C
- COc1cccc(C2(C(C)(C)O)CCN(C)CC2)c1 — lower, 100 °C
- Cc1nc2c(OCc3c(Cl)ccc(N(C)C(=O)CO)c3Cl)cccn2c1Br — higher, 217 to 218 °C
- Cc1ccc2c(c1)NC(=O)CO2 — higher, 204 to 205 °C
- Cc1cc2c([C@@H]3C[C@H]3CNC(=O)c3ccccc3)cccn2n1 (relative stereo) — lower, 112 to 113 °C
- O=C(Nc1ccc(C(=O)N2CCCc3ccccc32)cc1)c1cccc(O)c1 — higher, 217 to 218 °C
- CCNC(=C[N+](=O)[O-])NCCSCc1nccs1 — lower, 115 to 116 °C
